According to US12459957B2, “Therapeutic compounds and methods” (GENENTECH, INC., priority 2021, dated 2025):
Entries after “also recorded” stand apart in the source; their conditions may differ.

What was measured:
[1] = tested on: neutrophils (PMA-stimulated NETosis); assay: Quantification of NETosis using SYTOX Green; type: cell-based, human; settings: for NETosis (qualitative): polymorphonuclear leukocytes, FIG. 1
Description: Semi-automated analysis of both phase and fluorescence images of SYTOX Green-stained neutrophils used a MATLAB algorithm. Total cells were counted by scoring phase standard deviation and radial symmetry. NETosis was classified in cells by measuring the DNA area in the fluorescence image and comparing with a select internal training set for each experiment. Unstimulated cells and PMA-stimulated, pyocyanin-inhibited cells served as negative controls. PMA-stimulated cells served as a positive control. NET-forming cells are presented as a percentage of total cells.

[2] = tested on: neutrophils (PMA-stimulated ROS); assay: ROS detection assay (ROS-Glo, H2O2); type: cell-based; settings: Neutrophil; human neutrophils, 30 min preincubation, 50 nM PMA for 30 min
Procedure: ROS were measured in neutrophils using the ROS-Glo bioluminescent assay (Promega) for the direct detection of H2O2. Neutrophils were isolated from fresh human blood using a biphasic Histopaque gradient as described here. Cells (100 uL per well) were plated in 96-well plates at a density of 200,000 cells/mL in high glucose DMEM medium. Cells were preincubated with either DMSO vehicle or compounds (10-point dilution curve starting at 2 uM with 3-fold serial dilution) for 30 min, and then stimulated with 50 nM PMA for 30 min. Luminescence, after the addition of H2O2 substrate solution for 20 min, and then ROS-Glo detection solution for 20 min, was recorded on a luminescence plate reader. The fifty percent inhibitory concentration (IC50) was determined with GraphPad Prism by plotting the assay output (RLU) versus the logarithm of the compound concentration using a non-linear sigmoid with variable slope algorithm with the default curve-fitting parameters in the Prism software.

[3] = molecular target: T1, phosphofructokinase-1 liver type (PFKL) (Homo sapiens, UniProt P17858); assay: PFKL activation; type: biochemical
T1 sequence (P17858 1-780): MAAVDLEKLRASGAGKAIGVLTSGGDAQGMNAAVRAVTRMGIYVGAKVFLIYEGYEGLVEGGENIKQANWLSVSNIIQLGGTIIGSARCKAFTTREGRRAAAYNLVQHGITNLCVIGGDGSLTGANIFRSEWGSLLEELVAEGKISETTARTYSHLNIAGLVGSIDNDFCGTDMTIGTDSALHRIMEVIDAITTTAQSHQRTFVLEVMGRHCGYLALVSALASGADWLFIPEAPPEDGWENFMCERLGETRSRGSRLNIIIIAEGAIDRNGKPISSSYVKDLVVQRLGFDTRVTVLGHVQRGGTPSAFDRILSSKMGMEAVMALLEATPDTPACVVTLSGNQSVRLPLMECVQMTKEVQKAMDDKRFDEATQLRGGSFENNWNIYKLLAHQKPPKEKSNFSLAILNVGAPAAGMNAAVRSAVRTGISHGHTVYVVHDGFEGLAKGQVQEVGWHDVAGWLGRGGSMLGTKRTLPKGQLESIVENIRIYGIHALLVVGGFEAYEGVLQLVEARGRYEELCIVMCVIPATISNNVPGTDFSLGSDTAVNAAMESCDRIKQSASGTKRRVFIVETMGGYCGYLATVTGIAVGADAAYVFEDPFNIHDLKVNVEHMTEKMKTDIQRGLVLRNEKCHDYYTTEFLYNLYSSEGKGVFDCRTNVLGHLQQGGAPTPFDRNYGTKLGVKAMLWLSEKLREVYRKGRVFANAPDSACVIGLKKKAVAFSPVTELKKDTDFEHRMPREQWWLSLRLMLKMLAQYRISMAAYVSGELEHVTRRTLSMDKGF

[4] = molecular target: T2, phosphofructokinase-1 platelet type (PFKP) (Homo sapiens, UniProt Q01813); assay: PFKP activation; type: biochemical
T2 sequence (Q01813 1-784): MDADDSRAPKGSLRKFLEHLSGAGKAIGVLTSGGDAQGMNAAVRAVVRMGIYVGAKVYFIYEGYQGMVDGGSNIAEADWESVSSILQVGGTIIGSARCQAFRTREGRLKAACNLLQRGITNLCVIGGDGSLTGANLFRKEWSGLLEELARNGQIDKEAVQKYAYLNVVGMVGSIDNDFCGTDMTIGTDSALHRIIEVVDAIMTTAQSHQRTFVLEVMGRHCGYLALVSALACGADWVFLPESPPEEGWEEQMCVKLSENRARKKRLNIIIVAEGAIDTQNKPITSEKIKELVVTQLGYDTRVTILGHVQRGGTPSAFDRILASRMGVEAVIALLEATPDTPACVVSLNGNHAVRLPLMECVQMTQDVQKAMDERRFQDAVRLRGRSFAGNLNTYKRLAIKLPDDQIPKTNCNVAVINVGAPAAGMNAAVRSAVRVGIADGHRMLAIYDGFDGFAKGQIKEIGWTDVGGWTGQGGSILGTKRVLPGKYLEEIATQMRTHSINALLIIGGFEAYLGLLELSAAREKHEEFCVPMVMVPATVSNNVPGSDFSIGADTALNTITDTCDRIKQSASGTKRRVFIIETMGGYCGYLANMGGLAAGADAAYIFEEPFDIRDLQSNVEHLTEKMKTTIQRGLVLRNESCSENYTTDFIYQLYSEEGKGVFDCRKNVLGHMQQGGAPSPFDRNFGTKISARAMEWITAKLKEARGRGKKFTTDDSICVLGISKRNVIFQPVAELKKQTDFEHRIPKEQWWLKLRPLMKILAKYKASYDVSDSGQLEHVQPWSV

[5] = molecular target: T3, phosphofructokinase-1 muscle type (PFKM) (Homo sapiens, UniProt P08237); assay: PFKM activation; type: biochemical
T3 sequence (P08237 1-780): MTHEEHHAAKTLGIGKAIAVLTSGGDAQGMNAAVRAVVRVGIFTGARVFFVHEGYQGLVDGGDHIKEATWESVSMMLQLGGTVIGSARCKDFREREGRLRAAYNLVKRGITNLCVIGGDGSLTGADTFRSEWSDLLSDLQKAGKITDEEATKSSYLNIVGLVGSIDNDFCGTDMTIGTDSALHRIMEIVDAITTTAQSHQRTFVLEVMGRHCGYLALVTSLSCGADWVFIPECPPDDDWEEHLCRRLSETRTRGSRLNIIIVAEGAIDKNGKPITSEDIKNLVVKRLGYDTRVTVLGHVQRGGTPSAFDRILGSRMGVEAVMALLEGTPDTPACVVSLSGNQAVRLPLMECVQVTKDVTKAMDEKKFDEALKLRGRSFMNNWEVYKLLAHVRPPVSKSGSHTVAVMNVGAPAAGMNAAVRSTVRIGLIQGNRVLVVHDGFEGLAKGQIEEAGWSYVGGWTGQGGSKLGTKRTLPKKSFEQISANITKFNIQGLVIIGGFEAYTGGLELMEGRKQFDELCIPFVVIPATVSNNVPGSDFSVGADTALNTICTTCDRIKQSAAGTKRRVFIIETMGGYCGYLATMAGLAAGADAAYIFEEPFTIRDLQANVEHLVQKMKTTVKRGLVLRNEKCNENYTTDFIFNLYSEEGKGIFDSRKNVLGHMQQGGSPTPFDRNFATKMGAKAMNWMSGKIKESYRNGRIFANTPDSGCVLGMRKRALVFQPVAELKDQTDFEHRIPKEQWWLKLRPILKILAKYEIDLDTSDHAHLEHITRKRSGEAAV

[6] = tested on: NOX2-dependent oxidative burst in neutrophils; assay: NOX2-dependent oxidative burst in neutrophils; type: cell-based
[7] = tested on: GSDMD-dependent pyroptosis in primary human monocytes and human monocytic THP-1 cells; assay: GSDMD-dependent pyroptosis, LDH release; type: cell-based; settings: induced by nigericin, cytoplasmic LPS or cytoplasmic poly(dA-dT)
Procedure: (§1) FIG. 1. […] LDH (A) or IL-1β (B) released from primary human monocytes. Bars show the mean±s.e.m. of monocytes from 3 donors. (C) Western blots of monocytes at 1 h after electroporation with LPS. FL, full length GSDMD. NT, N-terminal fragment of GSDMD. Results representative of 3 independent experiments. (D) Coomassie blue staining of recombinant GSDMD. Results representative of 3 independent experiments. (E) TR-FRET assay measuring Europium-labeled biotin released from liposomes exposed to caspase-4 and GSDMD. Symbols indicate the mean±s.d. of 3 independent experiments. (F-G) Percentage of polymorphonuclear leukocytes (PMNs) undergoing NETosis induced by PMA (F) or the stimuli indicated (G). Data are the mean±s.d. of cells from 3 donors. (H) ROS production by PMNs. Bars show the mean±s.e.m. of PMNs from 3 donors. P-values (Two-way ANOVA, means compared to medium alone) are shown if P<0.05. (I) Percentage of PMNs undergoing PMA-induced NETosis. The x-axis indicates when NA-11 was added relative to the addition of PMA (t=0). Bars show the mean±s.e.m. of PMNs from 3 donors. P-values (one-way ANOVA, means compared to medium alone) are shown if P<0.05.
(§2) LDC7559 was reported to block the pore-forming activity of GSDMD (Sollberger et al., 2018). The ability to inhibit GSDMD-dependent pyroptosis in primary human monocytes and human monocytic THP-1 cells was tested (FIG. 1A-C).

[8] = tested on: GSDMD-dependent release of interleukin-1β (IL-1β) from monocytes; assay: GSDMD-dependent release of IL-1β from monocytes; type: cell-based, human; settings: in response to nigericin or poly(dA-dT)
Procedure: as §1, §2

GSDMD = molecular target: T4, GSDMD (Homo sapiens, UniProt P57764); assay: Western blot of LPS-induced cleavage of GSDMD in monocytes; type: cell-based; settings: monocytes after electroporation with LPS
T4 construct: Western blots of monocytes at 1 h after electroporation with LPS; endogenous in cells; host or cells: primary human monocytes
T4 sequence (P57764 1-484): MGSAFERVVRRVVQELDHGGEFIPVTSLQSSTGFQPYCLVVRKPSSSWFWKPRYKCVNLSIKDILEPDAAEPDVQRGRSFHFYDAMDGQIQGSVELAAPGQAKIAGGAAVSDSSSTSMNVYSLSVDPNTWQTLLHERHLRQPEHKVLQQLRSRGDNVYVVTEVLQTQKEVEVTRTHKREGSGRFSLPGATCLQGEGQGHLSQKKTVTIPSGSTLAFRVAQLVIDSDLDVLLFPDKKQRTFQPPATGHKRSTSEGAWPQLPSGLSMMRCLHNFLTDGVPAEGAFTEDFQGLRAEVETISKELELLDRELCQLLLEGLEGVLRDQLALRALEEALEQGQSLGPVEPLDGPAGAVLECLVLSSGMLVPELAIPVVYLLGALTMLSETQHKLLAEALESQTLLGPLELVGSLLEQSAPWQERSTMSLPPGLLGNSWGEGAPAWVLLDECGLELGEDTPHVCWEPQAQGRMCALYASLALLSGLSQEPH
Procedure: as §1, §2

[9] = molecular target: T5, recombinant GSDMD / caspase-4 (Homo sapiens, UniProt P57764); assay: Cleavage of recombinant GSDMD by caspase-4; type: biochemical
T5 sequence (P57764 1-484): T4 sequence (P57764 1-484)
Procedure: as §1, §2

[10] = molecular target: T6, GSDMD pore-forming fragment (Homo sapiens, UniProt P57764); assay: TR-FRET liposome permeabilization by GSDMD pore-forming fragment; type: biochemical; settings: liposomes exposed to caspase-4 and GSDMD
T6 sequence (P57764 1-275 limits assumed): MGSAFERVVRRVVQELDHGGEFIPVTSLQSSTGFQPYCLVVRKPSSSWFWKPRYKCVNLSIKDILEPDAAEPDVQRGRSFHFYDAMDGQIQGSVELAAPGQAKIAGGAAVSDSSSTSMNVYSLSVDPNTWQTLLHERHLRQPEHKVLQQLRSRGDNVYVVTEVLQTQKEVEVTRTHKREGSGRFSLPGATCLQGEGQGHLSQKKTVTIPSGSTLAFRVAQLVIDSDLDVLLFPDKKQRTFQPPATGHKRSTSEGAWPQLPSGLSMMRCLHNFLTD
Procedure: as §1, §2

SMILES	IC50 ([1]; Homo sapiens, Neutrophil, NETosis, SYTOX Green-stained neutrophils, PMA-stimulated)	5 uM (% NETosis) ([1]; compound at 5 uM, NET-forming cells as percentage of total cells, vehicle 79.66, untreated 14.54)	NETosis (qualitative) [1]	IC50 [2]	agonism/activation of PFKL [3]	agonism of PFKP [4]	agonism of PFKM [5]	NOX2-dependent oxidative burst [6]	GSDMD-dependent pyroptosis (LDH release) [7]	GSDMD-dependent release of IL-1β [8]	LPS-induced cleavage of GSDMD (Western blotting) (GSDMD)	cleavage of recombinant GSDMD by caspase-4 [9]	liposome permeabilization by GSDMD pore-forming fragment [10]
CC(=O)Nc1ccc2c(c1)OCc1cc(-c3ccccc3C#CCCCO)nn1C2 [Example 6, N-(2-(2-(5-hydroxypent-1-yn-1-yl)phenyl)-4H,10H-benzo[f]pyrazolo[5,1-c][1,4]oxazepin-7-yl)acetamide]	4 ± 0.5 nM	58.67%	inhibit NETosis	26 nM	activating	failed to agonize	failed to agonize	inhibit					
COc1ccccc1-c1cc2n(n1)Cc1ccc(NC(C)=O)cc1OC2 [LDC7559, N-(2-(2-methoxyphenyl)-4H,10H-benzo[f]pyrazolo[5,1-c][1,4]oxazepin-7-yl)acetamide]			inhibit NETosis		activating; also recorded: agonize			inhibit; also recorded: suppress	did not alter	occurred normally	did not prevent	did not inhibit	Nor did it prevent
